Experimental data: patent US9328142B2, “Lipopeptide inhibitors of RAS oncoproteins” (The United States of America, as represented by The …, priority 2011, dated 2016)

Assays:
[1] = system: A549 human lung cancer cell line harboring constitutively active Ras mutant; assay: MTT growth inhibition assay, A549; type: cell-based
Method: MCF-7 (breast cancer), T47D (breast cancer), Colo 205 (colon cancer), JM-1 (rat hepatoma), Sk Mel-2 (melanoma), PLC (human hepatoma), and HepG2 (human hepatoma) were obtained from American Type Cell Culture Collection. MCF-7 cells were grown in RPMI medium supplemented with 10% Fetal Bovine Serum. The remaining cell lines were grown in DMEM medium supplemented with 10% Fetal Bovine Serum. For the assay, cells were seeded into 96 well plates in medium containing 1% Fetal Bovine Serum and 100 μL of a cell suspension containing 5000 cells per well were used for each well. Cell growth was evaluated utilizing MTT ((3-(4,5-Dimethylthiazol-2-yl)-2,5-diphenyltetrazolium). The absorbance of the wells at 544 nm was determined by a FLUOstar/POLARstar Galaxy (BMG Lab Technologies GmbH) microplate reader.
The growth inhibitory activity of compounds was compared using the A549 human lung cancer cell line harboring constitutively active G12D Ras mutant with the help of an MTT assay. […] Stepwise extensions and truncations confirmed that the peptide had the optimal length (see Table 1).
The growth inhibitory activity of compounds was compared using the A549 human lung cancer cell line harboring constitutively active G12D Ras mutant with the help of an MTT assay.

[2] = target: 15N-labeled truncated K-Ras (1-166) (Homo sapiens, UniProt P01116); settings: 200 μM protein, 25° C., chemical shift perturbations Q25, N26, S32, T35, E37
Method: The titration was followed by NMR ^15N-edited HSQC spectra acquired on a 600 MHz Bruker spectrometer at 25° C.

[3] = system: H2009 lung adenocarcinoma cells (K-Ras mutant); assay: Growth inhibition, thoracic malignancy cell lines: H2009; type: cell-based
[4] = system: HCC15 lung squamous cell carcinoma cells (K-Ras WT); assay: Growth inhibition, thoracic malignancy cell lines: HCC15; type: cell-based
[5] = system: Calu3 lung adenocarcinoma cells (K-Ras WT); assay: Growth inhibition, thoracic malignancy cell lines: Calu3; type: cell-based
[6] = system: HP-1 malignant pleural mesothelioma cells (K-Ras WT); assay: Growth inhibition, thoracic malignancy cell lines: HP-1; type: cell-based; settings: HP-1, K-Ras WT
[7] = system: H460 large cell carcinoma cells (K-Ras mutant); assay: Growth inhibition, thoracic malignancy cell lines: H460; type: cell-based, human
[8] = system: H157 lung squamous cell carcinoma cells (K-Ras mutant); assay: Growth inhibition, thoracic malignancy cell lines: H157; type: cell-based
[9] = system: HCC95 lung squamous cell carcinoma cells (K-Ras WT); assay: Growth inhibition, thoracic malignancy cell lines: HCC95; type: cell-based
[10] = system: Calu 6 lung adenocarcinoma cells (K-Ras mutant); assay: Growth inhibition, thoracic malignancy cell lines: Calu 6; type: cell-based; settings: Calu 6, K-Ras mutant
[11] = system: H2461 malignant pleural mesothelioma cells (K-Ras WT); assay: Growth inhibition, thoracic malignancy cell lines: H2461; type: cell-based
[12] = system: H23 lung adenocarcinoma cells (K-Ras mutant); assay: Growth inhibition, thoracic malignancy cell lines: H23; type: cell-based
[13] = system: H2373 malignant pleural mesothelioma cells (K-Ras WT); assay: Growth inhibition, thoracic malignancy cell lines: H2373; type: cell-based
[14] = system: Ras protein in H2009 and H2592 cells; assay: Western blot of Ras protein amount in cancer cells; type: cell-based; settings: 0-3.0 μM, 18 hours
Method: A further experiment was undertaken to determine the effect of analogs of helix 6 and HVR on the amount of K-Ras protein in cancer cells. H2009 (lung adenocarcinoma cells) and H2592 (plural mesothelioma cells) were exposed to varying concentrations (0-3.0 μM) of kR-4A-3, kR-4B-3, or kR-H6-3 for 18 hours. The cells then were lysed and the lysate was analyzed by Western blot using anti-Ras mAb (Cell Biolabs, Inc.).

[15] = system: H2596 malignant pleural mesothelioma cells (K-Ras WT); assay: Growth inhibition, thoracic malignancy cell lines: H2596; type: cell-based
[16] = system: H2882 lung adenocarcinoma cells (K-Ras WT); assay: Growth inhibition, thoracic malignancy cell lines: H2882; type: cell-based
K-Ras in H2592 cells = K-Ras in H2592 cells (Homo sapiens, UniProt P01116); settings: GI50 concentrations, 18 hours
Description: Goat anti-mouse antibodies with Alexa Fluor TM 594 (red) were used to visualize the anti-Ras mouse mAb.

[17] = system: H358 broncheoalveolar cells (K-Ras mutant); assay: Growth inhibition, thoracic malignancy cell lines: H358; type: cell-based, human
[18] = system: activated (GTP-bound) Ras in H358 human lung cancer cells; assay: Raf-RBD pull-down of active (GTP-bound) Ras; type: cell-based; settings: 5 μM, varying exposure times
Method: H358 human lung cancer cells were grown in 6-well plates in DMEM medium containing 10% FBS. When the cells were about 70% confluent, the medium was replaced with DMEM containing 1% FBS. Two hours later, Ras inhibitors (kR-H6-48, HR-1, kR-4A-4, or kR-4B-2) were added to provide a final concentration of 5 μM.
After varying exposure times, the cells were rinsed with PBS and lysed. The lysates were cleared by centrifugation, incubated with immobilized Raf-RBD beads (which bind Ras) and analyzed by Western blot using manufacturer's protocols (Cytoskeleton, Inc., Denver, Colo.; Catalog No. BK008). The bands corresponding to active (GTP-bound) Ras were quantified with the help of MIPAV software.

[19] = system: Ras-dependent cancer cells (H358, SKBR3, SKOV3, ID8, MPR-178); assay: MTT growth assay on Ras-dependent cancer cells; type: cell-based, human, murine; settings: 48 hours, 1% FBS
Method: Ras-dependent cancer cells (H358 human lung cancer cells, SKBR3 human breast cancer cells, SKOV3 human ovarian cancer cells, ID8 murine ovarian cancer cells, and MPR-178 murine prostate cancer cells) were grown in DMEM medium containing 1% FBS and exposed to varying concentrations of Ras inhibitors (kR-H6-48 and HR-1) for 48 hours. Cell growth was evaluated utilizing an MTT ((3-(4,5-Dimethylthiazol-2-yl)-2,5-diphenyltetrazolium) assay. The absorbance of the wells at 544 nm was determined by a FLUOstar/POLARstar Galaxy (BMG Lab Technologies GmbH, Ortenberg, Germany) microplate reader. The assays were performed on untreated (control) and test cells. Cellular responses were calculated from the data using the following formula: 100×[(T−T0)/(C−T0)] for T>T0 and 100×[(T−T0)/T0] for T<T0, wherein T0 corresponds to cell density at the time of drug addition.

[20] = system: Lewis lung carcinoma LL/2 (LLC1) cells; assay: Lewis lung carcinoma LLC1 isograft growth; type: in vivo, female CB57Bl/6 mice; settings: 10 mg/kg s.c. near the tumor every second day
Method: Lewis lung carcinoma LL/2 (LLC1) (ATCC Catalog No. CRL-1642) cells were grown in DMEM medium containing 10% FBS. Cells were trypsinized and suspended in PBS. 3×10^6 LLC1 cells in 200 μl PBS were injected subcutaneously to the right flank of 8 weeks old female CB57Bl/6 mice.
Ras inhibitor injections started 2 weeks after LLC1 injections when tumors were at least 3 mm in diameter. For injections, solid kR-H6-48 was initially dissolved in DMSO to yield 20 mg/mL stock solution. DMSO stocks were diluted 20-fold in PBS pre-warmed to 35-37° C. 200 μl of the resulting solution (10 mg/kg dose) was injected subcutaneously near the tumor(s) every second day. The control group received 200 μl of 5% DMSO in PBS. Tumor size was measured with a caliper before each injection. The mice were sacrificed when the tumors reached maximal allowed size.

[21] = A549, MTT, Table 1 helix 6 derivatives
[22] = A549, MTT, Table 2 HVR derivatives

Substance	GI50 [1, 21]	GI50 [3]	GI50 ([1]; A549, K-Ras mutant, Table 3)	GI50 [1, 22]	GI50 [4]	GI50 [5]	GI50 [6]	GI50 [7]	GI50 [8]	GI50 [9]	GI50 [10]	GI50 [11]	GI50 [12]	GI50 [13]	amount of Ras protein [14]	GI50 [15]	GI50 [16]	GI50 [17]	further results
Pal-e-KAFYTLVREIRQYR [kR-H6-6]	0.25 µM	–	–	–	–	–	–	–	–	–	–	–	–	–	–	–	–	–	site of interaction with K-Ras [2]: localized interaction of the peptide with the Switch I region of K-Ras
Ac-YRLKKISKEEKTPGLNVKIKKK-e-Pal [kR-4A-3]	–	2.2 µM	3.1 µM	1.9 µM	7.4 µM	5.9 µM	> 10 µM	1.5 µM	2.4 µM	5.1 µM	3 µM	> 10 µM	2.6 µM	6.1 µM	reduced the amount of Ras protein in lung cancer cells in a concentration-dependent manner	8.2 µM	4 µM	2.2 µM	Ras protein levels by immunostaining (K-Ras in H2592 cells): reduction in protein levels; pattern of K-Ras distribution (K-Ras in H2592 cells): lack of characteristic punctuate pattern of K-Ras distribution
Cap-YQRVQRVLTYFA (all D) [kR-H6-48]	0.0008 ± 0.0005 µM	–	–	–	–	–	–	–	–	–	–	–	–	–	–	–	–	–	GTP-bound Ras (fraction of control) [18]: reduction in activated (GTP-bound) Ras; growth of Ras-dependent cancer cells (cell number, percent of control) [19]: growth inhibition of Ras-dependent cancer cells; LLC1 isograft growth [20]: inhibited LLC1 isograft growth
Ac-KKKKKKSKTKK-e-Pal [kR-4B-3]	–	2.9 µM	1.45 µM	1.75 µM	3.1 µM	2.2 µM	7.3 µM	1 µM	1.5 µM	3.3 µM	2.7 µM	> 10 µM	2.4 µM	4.8 µM	reduced the amount of Ras protein in lung cancer cells in a concentration-dependent manner	6.2 µM	3 µM	2 µM	–
